Test results: patent publication US10501449B2 (priority 2018, dated 2019)

Key:
[1] = target: hERG channels (Homo sapiens (Human), UniProt Q12809); assay: hERG Manual Patch Clamp Assay; assay type: cell-based; conditions: human, HEK 293 cells stably expressing hERG channels, pH 7.4, 1 uM, read-out: hERG EP % Inh @ 1 uM
[2] = target: hROMK (human Kir1.1) (Homo sapiens (Human), UniProt P48048); assay: cell-based; conditions: CHO T-Rex hROMK stable cell line; thallium flux; 10-point concentration response curve; read-out: Human ROMK Th Flux IC50
hROMK (human Kir1.1), sequence (P48048 whole entry): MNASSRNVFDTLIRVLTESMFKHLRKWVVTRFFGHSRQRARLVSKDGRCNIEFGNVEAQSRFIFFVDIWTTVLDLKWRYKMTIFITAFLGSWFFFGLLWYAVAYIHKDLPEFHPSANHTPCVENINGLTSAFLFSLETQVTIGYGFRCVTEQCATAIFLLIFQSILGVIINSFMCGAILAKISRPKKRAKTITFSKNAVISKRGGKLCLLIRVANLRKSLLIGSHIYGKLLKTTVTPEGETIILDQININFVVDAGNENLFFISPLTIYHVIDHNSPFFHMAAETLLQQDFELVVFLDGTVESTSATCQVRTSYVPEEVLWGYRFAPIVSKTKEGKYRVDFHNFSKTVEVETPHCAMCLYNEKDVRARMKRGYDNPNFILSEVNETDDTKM

hERG channels, sequence (Q12809 whole entry): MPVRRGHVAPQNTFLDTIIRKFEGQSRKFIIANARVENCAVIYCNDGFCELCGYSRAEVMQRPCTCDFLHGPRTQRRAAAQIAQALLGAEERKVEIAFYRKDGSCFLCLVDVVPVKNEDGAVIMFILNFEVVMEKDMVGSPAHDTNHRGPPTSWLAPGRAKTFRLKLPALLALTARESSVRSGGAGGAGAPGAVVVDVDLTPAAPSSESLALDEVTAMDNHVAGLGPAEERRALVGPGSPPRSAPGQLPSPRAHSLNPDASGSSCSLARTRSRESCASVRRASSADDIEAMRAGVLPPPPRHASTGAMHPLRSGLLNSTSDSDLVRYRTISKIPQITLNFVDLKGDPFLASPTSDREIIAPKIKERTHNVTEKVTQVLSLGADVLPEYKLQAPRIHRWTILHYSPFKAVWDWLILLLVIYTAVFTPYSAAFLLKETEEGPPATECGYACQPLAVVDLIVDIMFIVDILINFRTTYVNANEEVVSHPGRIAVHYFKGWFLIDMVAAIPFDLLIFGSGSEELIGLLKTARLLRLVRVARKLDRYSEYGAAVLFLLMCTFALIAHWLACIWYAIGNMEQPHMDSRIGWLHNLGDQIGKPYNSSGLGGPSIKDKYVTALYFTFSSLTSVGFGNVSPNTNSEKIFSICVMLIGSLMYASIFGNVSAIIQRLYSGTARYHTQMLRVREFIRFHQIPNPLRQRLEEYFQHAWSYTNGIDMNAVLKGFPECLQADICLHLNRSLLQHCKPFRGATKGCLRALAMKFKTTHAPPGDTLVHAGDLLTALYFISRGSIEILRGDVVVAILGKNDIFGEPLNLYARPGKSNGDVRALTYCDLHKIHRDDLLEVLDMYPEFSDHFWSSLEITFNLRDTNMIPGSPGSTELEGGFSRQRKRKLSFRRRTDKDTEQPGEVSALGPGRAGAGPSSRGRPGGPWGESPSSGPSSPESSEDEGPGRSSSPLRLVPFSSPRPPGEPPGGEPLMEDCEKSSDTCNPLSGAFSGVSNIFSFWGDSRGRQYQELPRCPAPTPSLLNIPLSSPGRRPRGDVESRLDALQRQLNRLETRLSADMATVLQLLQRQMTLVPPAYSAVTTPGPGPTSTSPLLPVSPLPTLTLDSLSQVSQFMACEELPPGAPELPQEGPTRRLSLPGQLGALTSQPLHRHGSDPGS

Row | SMILES | inhibition at 1 µM [1] [%] | IC50 [2] [nM]
1 | Cc1cc(C#N)ccc1-n1cc(CN2CCO[C@H](c3ccc4c(c3C)COC4=O)C2)cn1 [Example 47-I, (R)-3-methyl-4-(4-((2-(4-methyl-1-oxo-1,3-dihydroisobenzofuran-5-yl)morpholino)methyl)-1H-pyrazol-1-yl) benzonitrile] | 49 | 49
2 | COc1cc(C#N)ccc1-n1cc(CN2CCO[C@H](c3ccc4c(c3C)COC4=O)C2)cn1 [Example 51-I, (R)-3-methoxy-4-(4-((2-(4-methyl-1-oxo-1,3-dihydroisobenzofuran-5-yl)morpholino)methyl)-1H-pyrazol-1-yl) benzonitrile] | 43 | 29
3 | Cc1cc(-n2cc(CN3CCO[C@H](c4ccc5c(c4C)COC5=O)C3)c(C)n2)ncc1C#N [Example 52-I, (R)-4-methyl-6-(3-methyl-4-((2-(4-methyl-1-oxo-1,3-dihydroisobenzo-furan-5-yl)morpholino)methyl)-1H-pyrazol-1-yl)nicotinonitrile] | 72 | 2.8
4 | Cc1c([C@@H]2CN(Cc3cnn(-c4cc(C)c5oc(=O)n(C)c5c4)c3)CCN2)ccc2c1COC2=O [Example 57-I, (R)-3,7-dimethyl-5-(4-((3-(4-methyl-1-oxo-1,3-dihydroisobenzofuran-5-yl)piperazin-1-yl)methyl)-1H-pyrazol-1-yl)benzo[d]oxazol-2(3H)-one] | 26 | 59
5 | COc1cc(-c2ccc(CN3CCN[C@H](c4ccc5c(c4C)COC5=O)C3)cn2)ncc1C#N [Example 63-I, (R)-4-methoxy-5′-((3-(4-methyl-1-oxo-1,3-di-hydroisobenzofuran-5-yl)piperazin-1-yl)methyl)-[2,2′-bipyridine]-5-carbonitrile] | 23 | 60
6 | Cc1c([C@@H]2CN(Cc3ccc(-n4cc(C#N)cn4)nc3)CCN2)ccc2c1COC2=O [Example 64-I, (R)-1-(5-((3-(4-methyl-1-oxo-1,3-dihydroiso-benzofuran-5-yl)piper-azin-1-yl)methyl)pyri-din-2-yl)-1H-pyrazole-4-carbonitrile] | 45 | 8.8
7 | Cc1cc(-n2cc(CN3CCN(C)[C@H](c4ccc5c(c4C)COC5=O)C3)cn2)ncc1C#N [Example 70-I, (R)-4-methyl-6-(4-((4-methyl-3-(4-methyl-1-oxo-1,3-dihydroisobenzo-furan-5-yl)piperazin-1-yl)methyl)-1H-pyra-zol-1-yl)nicotinonitrile] | 8.4 | 59
8 | Cc1cc(-n2cc(CN3CC[C@@H](O)[C@H](c4ccc5c(c4C)COC5=O)C3)nn2)ncc1C#N [Example 84-I, 6-(4-(((3R,4R)-4-hydroxy-3-(4-methyl-1-oxo-1,3-dihydroisobenzofuran-5-yl)piperidin-1-yl)methyl)-1H-1,2,3-triazol-1-yl)-4-methylnicotinonitrile] | 6.7 | 52
9 | COc1cc(-n2cc(CN3C[C@@H](c4ccc5c(c4C)COC5=O)N[C@@H](C)C3)nn2)nc(C)c1C#N [Example 86-I, 4-methoxy-2-methyl-6-(4-(((3S,5R)-3-methyl-5-(4-methyl-1-oxo-1,3-dihydroisobenzofur-an-5-yl)piperazin-1-yl)methyl)-1H-1,2,3-triazol-1-yl)nicotinonitrile] | 8.8 | 64
10 | COc1nc(-n2cc(CN3C[C@@H](c4ccc5c(c4C)COC5=O)N[C@@H](C)C3)cn2)ccc1C#N [Example 93-I, 2-methoxy-6-(4-(((3S,5R)-3-methyl-5-(4-methyl-1-oxo-1,3-dihydroisobenzofur-an-5-yl)piperazin-1-yl)methyl)-1H-pyrazol-1-yl)nicotinonitrile] | 23 | 44
11 | Cc1nc(-n2cnc(CN3C[C@@H](c4ccc5c(c4C)COC5=O)N[C@@H](C)C3)c2)nc(C)c1C#N [Example 95-I, 4,6-dimethyl-2-(4-(((3S,5R)-3-methyl-5-(4-methyl-1-oxo-1,3-dihydroisobenzofur-an-5-yl)piperazin-1-yl)methyl)-1H-imidazol-1-yl)pyrimidine-5-carbonitrile] | 13 | 26
12 | Cc1nc(-n2cc(CN3C[C@@H](c4ccc5c(c4C)COC5=O)N[C@@H](C)C3)cn2)ncc1C#N [Example 96-I, 4-methyl-2-(4-(((3S,5R)-3-methyl-5-(4-methyl-1-oxo-1,3-dihydroisobenzofur-an-5-yl)piperazin-1-yl)methyl)-1H-pyrazol-1-yl)pyrimidine-5-carbonitrile] | 9.6 | 27
13 | Cc1nc(-n2ncc(CN3C[C@H](CO)N[C@H](c4ccc5c(c4C)COC5=O)C3)n2)ncc1C#N [Example 104-I, 2-(4-(((3R,5R)-3-(hydroxymethyl)-5-(4-methyl-1-oxo-1,3-dihydroisobenzofur-an-5-yl)piperazin-1-yl)methyl)-2H-1,2,3-triazol-2-yl)-4-methylpyrimidine-5-carbonitrile] | 3.4 | 36
14 | COc1cc(-n2cc(CN3CC[C@@H](O)[C@H](c4ccc5c(c4C)COC5=O)C3)cn2)ncc1C#N [Example 112-I, 6-(4-(((3R,4R)-4-hydroxy-3-(4-methyl-1-oxo-1,3-dihydroisobenzofur-an-5-yl)piperidin-1-yl)methyl)-1H-pyrazol-1-yl)-4-methoxynicotinonit-rile] | 22 | 18
15 | Cc1cc(-n2cc(CN3CC(c4ccc5c(c4C)COC5=O)C(O)C(C)(C)C3)cn2)ncc1C#N (stereo not shown) [Example 116-I, 6-(4-((4-hydroxy-3,3-dimethyl-5-(4-methyl-1-oxo-1,3-dihydroisobenzofuran-5-yl)piperidin-1-yl)methyl)-1H-pyrazol-1-yl)-4-methylnicotinonitrile] | 6.4 | 39
16 | Cc1cc(-n2cnc(CN3C[C@@H](c4ccc5c(c4C)COC5=O)N[C@@H](C)C3)n2)ncc1C#N [Example 122-I, 4-methyl-6-(3-(((3S,5R)-3-methyl-5-(4-methyl-1-oxo-1,3-dihydroisobenzofuran-5-yl)piperazin-1-yl)methyl)-1H-1,2,4-triazol-1-yl)nicotinonitrile] | 6.6 | 50
17 | Cc1cc(-c2ncc(CN3CC[C@@H](O)[C@H](c4ccc5c(c4C)COC5=O)C3)s2)ncc1C#N [Example 125-I, 6-(5-(((3R,4R)-4-hydroxy-3-(4-methyl-1-oxo-1,3-dihydroisobenzofuran-5-yl)piperidin-1-yl)methyl)thiazol-2-yl)-4-methylnicotinonitrile] | 8.3 | 30
18 | Cc1c([C@@H]2CN(Cc3cnn(-c4ccnc(C(F)(F)F)c4)c3)C[C@H](C)N2)ccc2c1COC2=O [Example 128-I, 4-methyl-5-((2R,6S)-6-methyl-4-((1-(2-(trifluoromethyl)pyridin-4-yl)-1H-pyrazol-4-yl)methyl)piperazin-2-yl)isobenzofuran-1(3H)-one] | 19 | 66
19 | Cc1c([C@@H]2CN(Cc3cnn(-c4ccn(C(F)F)c(=O)c4)c3)C[C@H](C)N2)ccc2c1COC2=O [Example 129-I, 1-(difluoromethyl)-4-(4-(((3S,5R)-3-methyl-5-(4-methyl-1-oxo-1,3-dihydroisobenzofuran-5-yl)piperazin-1-yl)methyl)-1H-pyrazol-1-yl)pyridin-2(1H)-one] | 32 | 26
20 | Cc1c([C@@H]2CN(Cc3cn(-c4ccc(C(F)F)nc4)cn3)C[C@H](C)N2)ccc2c1COC2=O [Example 134-I, 5-((2R,6S)-4-((1-(6-(difluoromethyl)pyridin-3-yl)-1H-imidazol-4-yl)methyl)-6-methylpiperazin-2-yl)-4-methylisobenzofuran-1(3H)-one] | 22 | 43
21 | Cc1c([C@@H]2CN(Cc3ccc(-n4ccc(C#N)n4)nc3)CCN2)ccc2c1COC2=O [Example 136-I, (R)-1-(5-((3-(4-methyl-1-oxo-1,3-dihydroisobenzofuran-5-yl)piperazin-1-yl)methyl)pyridin-2-yl)-1H-pyrazole-3-carbonitrile] | 29 | 28
22 | CCOc1cc(-n2cc(CN3CCN[C@H](c4ccc5c(c4C)COC5=O)C3)cn2)ncc1C#N [Example 137-I, (R)-4-ethoxy-6-(4-((3-(4-methyl-1-oxo-1,3-dihydroisobenzofuran-5-yl)piperazin-1-yl)methyl)-1H-pyrazol-1-yl)nicotinonitrile] | 23 | 26
23 | Cc1c([C@@H]2CN(Cc3cnn(-c4cc(OC(C)C)c(C#N)cn4)c3)CCN2)ccc2c1COC2=O [Example 140-I, (R)-4-isopropoxy-6-(4-((3-(4-methyl-1-oxo-1,3-dihydroisobenzofuran-5-yl)piperazin-1-yl)methyl)-1H-pyrazol-1-yl)nicotinonitrile] | 49 | 26
24 | Cc1cn(-c2cc(C)c(CN3CCN[C@H](c4ccc5c(c4C)COC5=O)C3)cn2)cn1 [Example 141-I, (R)-4-methyl-5-(4-((4-methyl-6-(4-methyl-1H-imidazol-1-yl)pyridin-3-yl)methyl)piperazin-2-yl)isobenzofuran-1(3H)-one] | 7.1 | 69
25 | Cc1cn(-c2ccc(CN3CCN[C@H](c4ccc5c(c4C)COC5=O)C3)c(C)n2)cn1 [Example 142-I, (R)-4-methyl-5-(4-((2-methyl-6-(4-methyl-1H-imidazol-1-yl)pyridin-3-yl)methyl)piperazin-2-yl)isobenzofuran-1(3H)-one] | 8.5 | 76
26 | COc1cc(-c2ccc(CN3CCN[C@H](c4ccc5c(c4C)COC5=O)C3)c(OC)n2)ncc1C#N [Example 143-I, (R)-4,6′-dimethoxy-5′-((3-(4-methyl-1-oxo-1,3-dihydroisobenzofuran-5-yl)piperazin-1-yl)methyl)-[2,2′-bipyridine]-5-carbonitrile] | 49 | 63
